Test results reported in patent US20110201564A1, “SUBSTITUTED 7-SULFANYLMETHYL, 7-SULFINYLMETHYL AND 7-SULFONYLMETHYL INDOLES AND USE THEREOF” (BAYER SCHERING PHARMA AKTIENGESELLSCHAFT, priority 2008, published 2011).
Read-outs that look alike come from different tables or passages of the source.

How the values were obtained:
[1] = molecular target: T1, progesterone receptor (PR) (Homo sapiens, UniProt P06401); assay: Cellular in vitro assay, GAL4-PR chimera luciferase reporter in CHO K1 cells (selectivity); type: cell-based; conditions: antagonism vs progesterone; CHO K1 GAL4-PR LBD luciferase reporter
T1 construct: of the progesterone receptor (PR, amino acids 680-933); expressed in transfected cells; host or cells: CHO K1
T1 sequence (P06401 680-933): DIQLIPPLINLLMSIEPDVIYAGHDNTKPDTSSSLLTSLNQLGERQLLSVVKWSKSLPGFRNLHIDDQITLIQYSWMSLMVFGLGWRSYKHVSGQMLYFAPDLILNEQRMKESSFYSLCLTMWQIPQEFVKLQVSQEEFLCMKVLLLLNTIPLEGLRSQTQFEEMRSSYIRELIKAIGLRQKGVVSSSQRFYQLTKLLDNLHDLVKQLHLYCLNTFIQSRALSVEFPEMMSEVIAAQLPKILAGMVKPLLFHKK
Description: (§1) 1. Cellular In Vitro Assay to Determine the Inhibitory MR Activity and MR Selectivity Compared with Other Steroid Hormone Receptors
(§2) Antagonists of the human mineralocorticoid receptor (MR) are identified, and the activity of the compounds described herein is quantified with the aid of a recombinant cell line. The cell is originally derived from a hamster ovary epithelial cell (Chinese Hamster Ovary, CHO K1, ATCC: American Type Culture Collection, VA 20108, USA).
(§3) An established chimera system in which the ligand-binding domains of human steroid hormone receptors are fused to the DNA-binding domain of the yeast transcription factor GAL4 is used in this CHO K1 cell line. The GAL4-steroid hormone receptor chimeras produced in this way are cotransfected and stably expressed with a reporter construct in the CHO cells.
(§4) To generate the GAL4-steroid hormone receptor chimeras, the GAL4 DNA-binding domain (amino acids 1-147) from the vector pFC2-dbd (from Stratagene) is cloned with the PCR-amplified ligand-binding domains of the mineralocorticoid receptor (MR, amino acids 734-985), of the progesterone receptor (PR, amino acids 680-933) and of the androgen receptor (AR, amino acids 667-919) into the vector pIRES2 (from Clontech). The reporter construct, which comprises five copies of the GAL4 binding site upstream of a thymidine kinase promoter, leads to expression of firefly luciferase (Photinus pyralis) after activation and binding of the GAL4-steroid hormone receptor chimeras by the respective specific agonists aldosterone (MR), dexamethasone (GR), progesterone (PR) and dihydrotestosterone (AR).
(§5) The MR, PR and AR cells are plated out in medium (Optimem, 2.5% FCS, 2 mM glutamine, 10 mM HEPES) in 96- (or 384- or 1536-)well microtiter plates on the day before the assay and are kept in a cell incubator (96% humidity, 5% v/v CO2, 37° C.). On the day of the assay, the substances to be tested are taken up in the abovementioned medium and added to the cells. About 10 to 30 minutes after addition of the test substances, the respective specific agonists of the steroid hormone receptors are added. After a further incubation time of 5 to 6 hours, the luciferase activity is measured with the aid of a video camera. The measured relative light units as a function of the substance concentration result in a sigmoidal stimulation curve. The IC50 values are calculated with the aid of the GraphPad PRISM computer program (Version 3.02).

androgen receptor (AR) = molecular target: T2, androgen receptor (AR) (Homo sapiens, UniProt P10275); assay: Cellular in vitro assay, GAL4-AR chimera luciferase reporter in CHO K1 cells (selectivity); type: cell-based; conditions: antagonism vs dihydrotestosterone; CHO K1 GAL4-AR LBD luciferase reporter
T2 construct: of the androgen receptor (AR, amino acids 667-919); expressed in transfected cells; host or cells: CHO K1
T2 sequence (P10275 668-920): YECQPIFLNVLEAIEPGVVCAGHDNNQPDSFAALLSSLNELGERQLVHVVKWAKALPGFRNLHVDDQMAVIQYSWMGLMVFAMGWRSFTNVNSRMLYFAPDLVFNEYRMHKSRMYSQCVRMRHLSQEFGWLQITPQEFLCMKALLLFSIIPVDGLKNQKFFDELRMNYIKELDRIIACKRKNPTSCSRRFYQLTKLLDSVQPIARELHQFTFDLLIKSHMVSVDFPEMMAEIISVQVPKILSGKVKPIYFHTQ
Description: as §1, §2, §3, §4, §5

[2] = molecular target: T3, human mineralocorticoid receptor (MR) (Homo sapiens, UniProt P08235); assay: Cellular in vitro assay, GAL4-MR chimera luciferase reporter in CHO K1 cells (inhibitory MR activity); type: cell-based; conditions: antagonism vs aldosterone; CHO K1 GAL4-MR LBD luciferase reporter
T3 construct: expressed in transfected cells; host or cells: CHO K1
T3 sequence (P08235 734-984 limits assumed): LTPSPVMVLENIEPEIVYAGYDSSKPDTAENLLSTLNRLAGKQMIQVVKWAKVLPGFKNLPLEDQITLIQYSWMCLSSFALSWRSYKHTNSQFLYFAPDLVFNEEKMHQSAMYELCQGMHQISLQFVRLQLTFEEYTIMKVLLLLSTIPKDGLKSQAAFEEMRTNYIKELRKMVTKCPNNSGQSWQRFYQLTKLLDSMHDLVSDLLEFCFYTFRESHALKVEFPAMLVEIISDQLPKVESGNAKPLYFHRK
Description: as §1, §2, §3, §4, §5

CYP3A4 = molecular target: T4, CYP3A4 (Homo sapiens, UniProt P08684); assay: CYP inhibition assay with human liver microsomes; type: in vitro ADME
T4 construct: using human liver microsomes (pool from various individuals); from tissue; host or cells: human liver microsomes (pool from various individuals)
T4 sequence (P08684 whole entry): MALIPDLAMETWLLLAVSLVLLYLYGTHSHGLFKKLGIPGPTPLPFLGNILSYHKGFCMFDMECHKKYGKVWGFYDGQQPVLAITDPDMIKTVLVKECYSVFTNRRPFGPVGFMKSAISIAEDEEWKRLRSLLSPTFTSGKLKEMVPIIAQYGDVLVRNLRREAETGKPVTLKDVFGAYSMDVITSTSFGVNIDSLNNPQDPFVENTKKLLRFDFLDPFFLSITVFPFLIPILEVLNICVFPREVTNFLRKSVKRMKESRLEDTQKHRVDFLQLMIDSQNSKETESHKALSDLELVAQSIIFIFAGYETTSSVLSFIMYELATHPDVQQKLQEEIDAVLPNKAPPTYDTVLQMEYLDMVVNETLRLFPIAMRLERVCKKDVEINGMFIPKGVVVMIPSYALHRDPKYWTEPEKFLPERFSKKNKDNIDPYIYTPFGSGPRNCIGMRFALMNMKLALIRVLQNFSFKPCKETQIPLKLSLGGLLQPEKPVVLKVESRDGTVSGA
Description: Inhibitory properties of an active ingredient on the cytochromes P450 (CYP) of the human body may entail extensive clinical effects (drug interactions) because most of the prescribed medicaments are degraded (metabolized) by these enzymes. The ones involved in this are in particular the CYP isoenzymes of the 1A and 2C families, CYP2D6 and, with a proportion of almost 50%, CYP3A4. In order to preclude or minimize these possible drug interactions (Drug-Drug Interactions, DDI), the ability of substances to be able to inhibit CYP1A2, CYP2C8, CYP2C9, CYP2D6 and CYP3A4 in humans is investigated using human liver microsomes (pool from various individuals). This takes place by measuring CYP isoform-specific metabolites formed from standard substrates such as, for example, phenacetin, amodiaquin, diclofenac, dextromethorphan, midazolam and testosterone. The inhibitory effects are investigated at six different concentrations of the test compounds (1.5, 3.1, 6.3, 12.5, 25 and 50 μM as maximum concentration or 0.6, 1.3, 2.5, 5, 10 and 20 μM as maximum concentration), comparing with the extent of the CYP isoform-specific metabolite formation of the standard substrates in the absence of the test compounds, and calculating the corresponding IC50 values. CYP isoform-specific standard inhibitors such as, for example, fluvoxamine, quercetin, sulfaphenazole, fluoxetine and ketoconazole serve as control of the results obtained. In order to obtain indications of the possible mechanism-based inhibitors (MBI) on CYP3A4, the human liver microsomes are incubated in the presence of the inhibitor to be investigated for 30 minutes before the addition of midazolam or testosterone as standard substrates of CYP3A4. A reduction in the IC50 obtained by comparison with the mixture without preincubation serves as an indicator of a mechanism-based inhibition. Mibefradil serves as positive control.
The incubations of the standard substrates with human liver microsomes (23-233 μg/mL) in the presence of the test compound (as potential inhibitor) are carried out in 96-well plates in a workstation (Tecan, Genesis, Crailsheim, Germany) at 37° C. The incubation times are 15-20 minutes. The test compounds are preferably dissolved in acetonitrile (1.0 or 2.5 mM stock solution). The 96-well plates are produced by sequential addition of a stock solution of NADP+, EDTA, glucose 6-phosphate and glucose-6-phosphate dehydrogenase in phosphate buffer (pH 7.4), the test compound, and a solution of standard substrate and human liver microsomes in phosphate buffer (pH 7.4). The total volume is 200 μl. The corresponding control incubations with and without standard inhibitor also take place on the 96-well plate. The incubations are stopped after the respective incubation time by adding 100 μl of acetonitrile in which there is a suitable internal standard. Precipitated proteins are removed by centrifugation (3000 rpm, 10 minutes, 10° C.). The resulting supernatants of the respective plates are combined on one plate and analyzed by LC-MS/MS. The […] values are generated from the resulting measured data and used to assess the inhibitory potential of the test compound.

[3] = 30 min preincubation with test compound before substrate, read-out: CYP 3A4 Preincubation, 30 min.
[4] = without preincubation, read-out: CYP 3A4 Coincubation

SMILES	IC50 [1] [µM]	IC50 (androgen receptor (AR)) [µM]	IC50 [2] [µM]	IC50 (CYP3A4; [3]) [µM]	IC50 (CYP3A4; [4]) [µM]
CC(CCC#N)(c1ccc(Cl)cc1)c1c[nH]c2c(CS(C)(=O)=O)cccc12 (stereo not drawn) [Example 171, 4-(4-Chlorophenyl)-4-{7-[(methylsulfonyl)methyl]-1H-indol-3-yl}-pentanonitrile]	2.23	3.2	0.03	7.8	> 20
CS(=O)(=O)Cc1cccc2c(C(c3ccc(Cl)cc3)C3CC3C#N)c[nH]c12 (stereo not drawn) [Example 276, 2-[(4-Chlorophenyl){7-[(methylsulfonyl)methyl]-1H-indol-3-yl}methyl]cyclopropanecarbonitrile]	10		0.024	18.2	> 20
CS(=O)(=O)Cc1cccc2c(C(c3ccc(Cl)cc3)C3CC3)c[nH]c12 (stereo not drawn) [Example 249, 3-[(4-Chlorophenyl)(cyclopropyl)methyl]-7-[(methylsulfonyl)methyl]-1H-indole]	9.73	3.45	0.069	18.3	> 20
CS(=O)(=O)Cc1cccc2c(C(c3c(F)cc(Cl)cc3F)C3CC3)c[nH]c12 (stereo not drawn) [Example 252, 3-[(4-Chloro-2,6-difluorophenyl)(cyclopropyl)methyl]-7-[(methylsulfonyl)methyl]-1H-indole]	10	3.03	0.071	> 20	> 20
CS(=O)(=O)Cc1cccc2c(C(c3ccc(C(F)(F)F)cc3Cl)C3CC3)c[nH]c12 (stereo not drawn) [Example 245, 3-{[2-Chloro-4-(trifluoromethyl)phenyl](cyclopropyl)methyl}-7-[(methylsulfonyl)methyl]-1H-indole]		3.45	0.12	> 20	> 20
CS(=O)(=O)Cc1cccc2c(C(c3ccc(Cl)cc3)C3CC3(F)F)c[nH]c12 (single isomer, unassigned) [Example 261-2, 3-[(4-Chlorophenyl)(2,2-difluorocyclopropyl)methyl]-7-[(methylsulfonyl)methyl]-1H-indole]	5.24	6.06	0.028	15	> 20

Other lines, results leading:

IC50 [1] [µM]	IC50 (androgen receptor (AR)) [µM]	IC50 [2] [µM]	IC50 (CYP3A4; [3]) [µM]	IC50 (CYP3A4; [4]) [µM]	SMILES
10	1.6	0.27	19.4	> 20	CS(=O)(=O)Cc1cccc2c(C(c3ccc(F)cc3F)C3CC3)c[nH]c12 (stereo not drawn) [Example 250, 3-[Cyclopropyl(2,4-difluorophenyl)methyl]-7-[(methylsulfonyl)methyl]-1H-indole]
5.51		0.15	14.4	> 20	C[S+]([O-])Cc1cccc2c(C3(C4CC4)CCc4cc(F)ccc43)c[nH]c12 (mixture of isomers) [Example 120, 3-(1-Cyclopropyl-5-fluoro-2,3-dihydro-1H-inden-1-yl)-7-[(methylsulfinyl)methyl]-1H-indole]
3.77	1.39	0.066	15.8	> 20	CS(=O)(=O)Cc1cccc2c(C(c3ccc(Cl)cc3Cl)C3CC3)c[nH]c12 (stereo not drawn) [Example 242, 3-[Cyclopropyl(2,4-dichlorophenyl)methyl]-7-[(methylsulfonyl)methyl]-1H-indole]
